Laboratory results as given in ChEMBL document CHEMBL3430912, “GSK Tres Cantos Anti-Kinetoplastid Screening (TCAKS) Data”.

Assays:
[1] = test system: Trypanosoma cruzi; assay: (§1) GSK_TCAKS: pIC50 Trypanosoma cruzi Imaging: Infected Cells. […] Cells were then washed once with PBS before infection. T. cruzi trypomastigotes, collected at days 5 to 8 after infection from LLC-MK2 parasite infected cultures, were allowed to swim out for 4h at 37C from a centrifuged pellet (2,500 rpm/10 min/room temperature). Trypomastigotes were then collected and counted in a CASY Cell Counter. Trypomastigotes, in supplemented DMEM, were added to H9c2 cultures in a multiplicity of infection of 1 and incubated for 18 h. Cells were washed once with PBS before incubation of the infected H9c2 monolayer with trypsin (Life-Technologies) to detach cells from the flask. Cells were counted in a CASY Cell Counter using a 150 um capillary and their density set at 5 * 10^4 cells per mL in supplemented assay DMEM. Infected H9c2 were dispensed into 384-well poly-lysine coated assay plates at 50uL per well using a Multidrop Combi dispenser. After seeding them, the plates were incubated at 37C, 5% CO2 for 72h. Cultures were then fixed and stained by addition of 50 uL of a solution containing 8% formaldehyde and 4 uM DRAQ5 DNA dye (BioStatus, UK) per well. […] Five images were collected per well for reliable statistical analysis. Automated image analysis was performed with a script developed on Acapella High Content Imaging and Analysis Software (PerkinElmer). Output: percentage of infected cells per well as a second infection marker.; assay type: functional, organism-based, Rattus norvegicus; settings: H9c2, 4 h
[2] = test system: Trypanosoma cruzi; assay: GSK_TCAKS: pIC50 Trypanosoma cruzi Imaging: Amastigotes/Cell. […] Cells were then washed once with PBS before infection. T. cruzi trypomastigotes, collected at days 5 to 8 after infection from LLC-MK2 parasite infected cultures, were allowed to swim out for 4h at 37C from a centrifuged pellet (2,500 rpm/10 min/room temperature). Trypomastigotes were then collected and counted in a CASY Cell Counter. Trypomastigotes, in supplemented DMEM, were added to H9c2 cultures in a multiplicity of infection of 1 and incubated for 18 h. Cells were washed once with PBS before incubation of the infected H9c2 monolayer with trypsin (Life-Technologies) to detach cells from the flask. Cells were counted in a CASY Cell Counter using a 150 um capillary and their density set at 5 * 10^4 cells per mL in supplemented assay DMEM. Infected H9c2 were dispensed into 384-well poly-lysine coated assay plates at 50uL per well using a Multidrop Combi dispenser. After seeding them, the plates were incubated at 37C, 5% CO2 for 72h. Cultures were then fixed and stained by addition of 50 uL of a solution containing 8% formaldehyde and 4 uM DRAQ5 DNA dye (BioStatus, UK) per well. […] Five images were collected per well for reliable statistical analysis. Automated image analysis was performed with a script developed on Acapella High Content Imaging and Analysis Software (PerkinElmer). Output: number of amastigotes per cell as infection level measurement.; assay type: functional, organism-based, Rattus norvegicus; settings: H9c2, 4 h
[3] = GSK_TCAKS: pIC50 HepG2 human cell line viability assay using luminiscence. […] Seeding density was checked to ensure that new mono-layers were not more than 50% confluent at the time of harvesting. Cell suspension was added to 500 mL of the same medium at a final density of 1.2 * 10^5 cells/mL. This cell suspension was dispensed (25 uL, 3000 cells per well) into 384-well clear-bottom plates using a Multidrop Combi dispenser. Prior to addition of the cell suspension, the screening compounds (250 nL) were pre-dispensed into the plates with an Echo liquid handler. Plates were incubated for 48 h at 37C, 5% CO2. After incubation, plates equilibrated at room temperature for 30 min before proceeding to develop the luminescent signal. The signal developer, CellTiter-Glo Reagent, was allowed to equilibrate at room temperature for 30 min and added to the plates (25uL per well) using a Multidrop Combi dispenser. Plates were left for 10 min at room temperature for stabilization and then read using a ViewLux.; assay type: toxicity, cell-based
[4] = test system: Trypanosoma cruzi; assay: GSK_TCAKS: pIC50 Trypanosoma cruzi viability assay using beta-GAL activity. This assay was run at single shot at 5uM compound concentration per well. The biological reagents consisted of NIH-3T3 host cells and trypomastigotes parasitic cells; both cell types were set to a 3.3 * 10^5 cells/mL dilution in assay DMEM by means of a CASY cell counter device using a 60um capillary. 6 uL of the mixture were dispensed per well (about 1 * 10^3 host-cells and 1 * 10^3 parasites) with a Multidrop Combi dispenser. […] In all wells, the percentage of DMSO never exceeded 0.5%. Plates incubated for four days at 37C, 5% CO2. The substrate used for the assay fluorescence intensity (FLINT) readout was resorufin-beta-D-galactopiranoside (Sigma-Aldrich) at 5uM per well. It was diluted in PBS supplemented with the soft detergent Igepal (Fluka).; assay type: functional, organism-based, Mus musculus; settings: Tulahuen, NIH3T3
[5] = test system: Leishmania donovani; assay: GSK_TCAKS: pIC50 Leishmania donovani Imaging: Amastigotes/Macrophages. Assay plates (384-well) were prepared by adding 250nL of compound to each well. For single shot assay, the final compound concentration was 5 uM. […] Automated image analysis was performed with a script developed on Acapella High Content Imaging and Analysis Software (PerkinElmer). Output: Average number of amastigotes per macrophage cell were reported for each well.; assay type: functional, organism-based, Homo sapiens; settings: THP-1
[6] = test system: Leishmania donovani; assay: GSK_TCAKS: pIC50 Leishmania donovani Imaging: Infected Macrophages. Assay plates (384-well) were prepared by adding 250nL of compound to each well. For single shot assay, the final compound concentration was 5 uM. […] Automated image analysis was performed with a script developed on Acapella High Content Imaging and Analysis Software (PerkinElmer). Output: Percent of infected macrophage cells were reported for each well.; assay type: functional, organism-based, Homo sapiens; settings: THP-1
[7] = test system: Trypanosoma brucei brucei; assay: GSK_TCAKS: pIC50 Trypanosoma brucei viability assay using luminiscence. Assay plates (1536-well) were prepared. T. brucei cultures were harvested and counted in a CASY cell counter. A parasite suspension was prepared at a final concentration of 5 * 10^4 cells/mL in complete HMI9 medium and 6uL was dispensed to all wells containing compounds using a Multidrop Combi dispenser. 6uL of HMI9 media with 0.4% DMSO were dispensed to control columns. Plates were incubated for 24 h at 37C, 5% CO2 then tempered for 10 min at room temperature. ATP content was quantified by adding 4 uL of CellTiter-Glo Reagent (Promega) according to the manufacturer's instructions. Luminescence was measured using a ViewLux.; assay type: functional, organism-based; settings: Lister 427, CASY
[8] = target: Sterol 14-alpha demethylase (Trypanosoma cruzi (strain CL Brener), UniProt Q7Z1V1); assay: GSK_TCAKS: pIC50 CYP51 from Trypanosoma cruzi.; assay type: functional
Sequence of Sterol 14-alpha demethylase (Q7Z1V1 whole entry): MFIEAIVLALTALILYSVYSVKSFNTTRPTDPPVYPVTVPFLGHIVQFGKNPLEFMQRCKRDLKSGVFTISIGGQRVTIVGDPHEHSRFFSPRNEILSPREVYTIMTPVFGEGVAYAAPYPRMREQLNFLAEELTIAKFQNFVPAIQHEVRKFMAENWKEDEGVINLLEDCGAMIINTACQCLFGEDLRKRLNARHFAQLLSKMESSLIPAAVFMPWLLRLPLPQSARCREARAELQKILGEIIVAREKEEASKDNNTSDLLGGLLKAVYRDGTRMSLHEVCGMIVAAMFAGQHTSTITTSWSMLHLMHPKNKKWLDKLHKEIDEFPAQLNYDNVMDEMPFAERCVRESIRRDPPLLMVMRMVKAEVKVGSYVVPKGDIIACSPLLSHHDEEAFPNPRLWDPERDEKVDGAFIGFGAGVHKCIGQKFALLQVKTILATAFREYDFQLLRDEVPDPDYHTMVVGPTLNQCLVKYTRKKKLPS

[9] = test system: Leishmania donovani; assay: GSK_TCAKS: pIC50 Leishmania donovani viability assay using fluorescence intensity. Assay plates (1536-well) were prepared by adding 30nL per well of compound. For single shot assay, the final compound concentration was 5uM. […] Briefly, eGFP LdBOB axenic amastigotes were harvested, fixed and counted in a CASY cell counter (Roche-Applied Science). A final concentration of 1.5 * 10^5 cells per well were prepared in amastigote media containing 500 U/mL penicillin/streptomycin (Invitrogen) and 6uL was dispensed to each experimental well using a Multidrop Combi dispenser (Thermo Scientific). 6uL of assay media was dispensed to control columns used as reference for 100% compound response. Following incubation for 72 h at 37C, 5% CO2, 2 uL of resazurin was added to each well at a final concentration of 0.5 mM in phosphate buffered saline (PBS) with IGEPAL (Sigma-Aldrich), 0.05% (v/v).; assay type: functional, organism-based
[10] = test system: Trypanosoma brucei brucei; assay: GSK_TCAKS: pIC50 Trypanosoma brucei viability assay using fluorescence intensity. Assay plates (1536-well) were prepared by dispensing 25nL of compound solution per well using an Echo acoustic dispenser (Labcyte).; assay type: functional, organism-based; settings: Lister 427, 2 h
[11] = test system: Trypanosoma cruzi; assay: as §1, with “H2C9” for “Trypanosoma cruzi”, “H9c2 Host Cardiomyocytes.” for “Infected Cells.”, “Number” for “percentage”, “H9c2 Host Cardiomyocytes nuclei to determine drug-related cytotoxicity.” for “infected cells per well as a second infection marker.”; assay type: functional, organism-based, Rattus norvegicus; settings: H9c2, 4 h
[12] = test system: Leishmania donovani; assay: GSK_TCAKS: pIC50 Leishmania donovani Imaging: THP-1 Host Macrophages. Assay plates (384-well) were prepared by adding 250nL of compound to each well. For single shot assay, the final compound concentration was 5 uM. […] Automated image analysis was performed with a script developed on Acapella High Content Imaging and Analysis Software (PerkinElmer). Output: THP-1 cell count were reported for each well.; assay type: functional, organism-based, Homo sapiens

| Compound | IC50 [1] [µM] | IC50 [2] [µM] | IC50 at 48 h [3] [µM] | IC50 [4] [µM] | IC50 [5] [µM] | IC50 [6] [µM] | IC50 [7] [µM] | IC50 [8] [µM] | IC50 [9] [µM] | IC50 [10] [µM] | IC50 [11] [µM] | IC50 [12] [µM] |
| --- | --- | --- | --- | --- | --- | --- | --- | --- | --- | --- | --- | --- |
| CCCCn1c(=O)c2c(N)onc2n(CCCC)c1=O | 31.6 | 25.1 | 50.1 | 25.1 | 31.6 | > 50.1 | 0.501 | 79.4 | > 50.1 | 0.631 | 25.1 | > 50.1 |
| Nc1nccc(-c2csc(Nc3ccc(Cl)cc3)n2)n1 | > 50.1 | > 50.1 | > 100 | 1.26 | 1 | 1 | > 39.8 | 1.26 | 3.98 | > 39.8 | 2 | > 50.1 |
| NS(=O)(=O)c1ccc(Nc2nccc(-c3cnn4ncccc34)n2)cc1 | 15.8 | 0.794 | > 100 | 2.51 | 1 | 2 | 0.158 | > 100 | 0.794 | 0.0794 | 0.316 | 0.251 |
| CC(=O)Nc1ccc(Nc2nccc(-c3cnn4ncccc34)n2)cc1C(F)(F)F | 0.501 | 0.2 | > 100 | 0.0501 | 0.0158 | 0.0251 | 0.0501 | 31.6 | 0.2 | 0.0316 | 0.0631 | 0.01 |
| O=C1OCc2ccc(Nc3nccc(-c4cnn5ncccc45)n3)cc21 | 0.0631 | 0.0316 | > 100 | 0.0251 | 0.0126 | 0.0158 | 0.02 | > 100 | 0.0631 | 0.00398 | 0.0251 | 0.00794 |
| Fc1ccc(Nc2nc(-c3ccccn3)cs2)cc1 | 5.01 | 5.01 | > 100 | 2.51 | 6.31 | 10 | 25.1 | 15.8 | 20 | 25.1 | 1 | > 50.1 |
| O=c1nc(NCCCNCc2cc(Br)cc(Br)c2)[nH]c2ccsc12 | 0.631 | 0.398 | 50.1 | 0.631 | 2.51 | 5.01 | 0.1 | 31.6 | 15.8 | 0.1 | 25.1 | 15.8 |
| O=c1cc(NCCCNCc2c[nH]c3ccc(Br)cc23)[nH]c2ccccc12 | > 50.1 | 31.6 | > 100 | > 50.1 | > 50.1 | > 50.1 | 0.794 | > 100 | > 50.1 | 1 | > 50.1 | > 50.1 |
| Cc1cc(Br)sc1CNCCCNc1cc(=O)c2ccccc2[nH]1 | 0.794 | 0.501 | 39.8 | 1.58 | 20 | 25.1 | 0.1 | 63.1 | > 50.1 | 0.0631 | 25.1 | 20 |
| O=C(NCC1CCCCN1C(=O)c1cccc2ccccc12)c1ccccc1 (centres undefined) | 5.01 | 3.16 | > 100 | 6.31 | > 50.1 | > 50.1 | 0.398 | > 100 | > 50.1 | 0.398 | > 50.1 | > 50.1 |
| O=c1cc(NCCCNCc2cc(C(F)(F)F)cs2)[nH]c2ccccc12 | > 50.1 | 5.01 | 63.1 | 7.94 | 25.1 | 39.8 | 0.398 | 25.1 | > 50.1 | 0.316 | 31.6 | 20 |
| Oc1c(-c2nnc(CCc3ccccc3)[nH]2)ncc2cccnc12 | 0.2 | 0.2 | 39.8 | 0.2 | 3.16 | 3.98 | 1.58 | > 100 | 0.316 | 0.794 | 15.8 | 20 |
